The target in experiment [1] is T1, beta-catenin/TCF4 engagement (Homo sapiens, UniProt P35222).
T1 construct: expressed in transfected cells; host or cells: HEK293
T1 sequence (P35222 1-781): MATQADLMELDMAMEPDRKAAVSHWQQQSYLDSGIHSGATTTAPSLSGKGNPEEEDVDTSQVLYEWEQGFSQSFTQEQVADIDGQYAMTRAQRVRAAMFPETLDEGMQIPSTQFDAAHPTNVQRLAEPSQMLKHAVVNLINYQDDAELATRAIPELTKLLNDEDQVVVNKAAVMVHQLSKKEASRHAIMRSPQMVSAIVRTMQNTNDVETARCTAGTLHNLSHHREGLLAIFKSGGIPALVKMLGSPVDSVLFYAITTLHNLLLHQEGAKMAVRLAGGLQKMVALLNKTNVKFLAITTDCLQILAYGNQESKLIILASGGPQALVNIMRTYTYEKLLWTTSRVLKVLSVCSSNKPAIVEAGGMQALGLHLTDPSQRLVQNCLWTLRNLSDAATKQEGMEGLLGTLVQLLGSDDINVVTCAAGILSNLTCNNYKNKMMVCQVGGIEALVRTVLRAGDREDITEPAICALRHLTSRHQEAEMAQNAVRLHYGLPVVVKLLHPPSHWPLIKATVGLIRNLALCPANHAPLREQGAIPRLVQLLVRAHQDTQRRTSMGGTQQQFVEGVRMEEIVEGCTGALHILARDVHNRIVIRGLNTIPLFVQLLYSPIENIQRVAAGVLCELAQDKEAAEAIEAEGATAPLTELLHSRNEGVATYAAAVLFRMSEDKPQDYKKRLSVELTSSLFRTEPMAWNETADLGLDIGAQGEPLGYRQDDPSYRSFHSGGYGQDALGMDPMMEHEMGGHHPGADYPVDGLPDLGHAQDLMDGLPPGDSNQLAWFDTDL
Description: Nano-BRET target engagement assay (B-cat-Halo & TCF4-Luc in HEK293 cells). The class given is cell-based. As to conditions: absolute IC50; read-out: NanoBRET Abs IC50. (BRET reads energy transfer from a luciferase to a nearby fluorophore.)

Experiment [2] deals with T2, full-length beta-Catenin (Uniprot ID P35222) (Homo sapiens, UniProt P35222).
T2 construct: 10 nM full-length beta-Catenin (Uniprot ID P35222)
T2 sequence (P35222 1-781): T1 sequence (P35222 1-781)
The experiment in a line: Fluorescence polarization IC50 (beta-catenin / 5FAM-TCF4 10-53 competition). As to conditions: fluorescence polarization; read-out: beta-Catenin FP IC50. The class given is binding. In general terms: In fluorescence polarisation assays a small probe gives low polarisation when free and higher when bound to something large.

pIC50: −log10 of the molar value.

The pIC50 is −log10 of the IC50, conventionally taken in molar units.

For the compound `CCNC(=O)CC[C@H](NC(=O)[C@H](Cc1csc2ccccc12)NC(=O)[C@H](Cc1ccsc1)NC(=O)[C@]12CCN(C1)C(=O)OCCCC=CCCCC1(CCCC=CC[C@]3(CCCN3C(C)=O)C(=O)N[C@@H](CC(=O)O)C(=O)N[C@@H](CC(C)(C)C)C(=O)N1)C(=O)N[C@@H](CC(=O)O)C(=O)N[C@@H](CN(CC(=O)O)CC(F)(F)F)C(=O)N[C@@H](C)C(=O)N[C@@H](C)C(=O)N[C@@H](Cc1ccccc1)C(=O)N[C@@H](CC(C)C)C(=O)N2)C(=O)N[C@@H](C)C(N)=O` (stereo partly drawn) [I-2471, Ac-PL3-Asp-Npg-B5-Asp-TfeGA-Ala-Ala-Phe-Leu-PyrS2-3Thi-BztA-[NHEt]GlnR-Ala-NH2], the pIC50 was 5.68 in experiment [1] and 7.85 in experiment [2].

With `CCNC(=O)CC[C@H](NC(=O)[C@H](Cc1csc2ccccc12)NC(=O)[C@H](Cc1ccccc1C(F)(F)F)NC(=O)[C@]12CCN(C1)C(=O)OCCCC=CCCCC1(CCCC=CC[C@]3(CCCN3C(C)=O)C(=O)N[C@@H](CC(=O)O)C(=O)N[C@@H](CC(C)(C)C)C(=O)N1)C(=O)N[C@@H](CC(=O)O)C(=O)N[C@@H](Cc1cccc(C(=O)O)c1)C(=O)N[C@@H](C)C(=O)N[C@@H](C)C(=O)N[C@@H](Cc1ccccc1)C(=O)N[C@@H](CC)C(=O)N2)C(=O)N[C@@H](C)C(N)=O` (stereo partly drawn) [I-2472, Ac-PL3-Asp-Npg-B5-Asp-3COOHF-Ala-Ala-Phe-Abu-PyrS2-2F3MeF-BztA-INHEt]GlnR-Ala-NH2], the pIC50 was 5.74 in experiment [1] and 7.89 in experiment [2].

Regarding `CC(=O)N1CCC[C@]12CC=CCCCC1(CCCC=CCCCOC(=O)N3CC[C@@](C(=O)N[C@@H](Cc4ccsc4)C(=O)N[C@@H](Cc4csc5ccccc45)C(=O)N[C@@H](CCCCN)C(N)=O)(C3)NC(=O)[C@H](CC(N)=O)NC(=O)[C@H](Cc3ccccc3)NC(=O)[C@H](C)NC(=O)C(C)(C)NC(=O)[C@H]([C@@H](C)O)NC(=O)[C@H](CC(N)=O)NC1=O)NC(=O)[C@H](CC(C)(C)C)NC(=O)[C@H](CC(=O)O)NC2=O` (stereo partly drawn) [I-2477, Ac-PL3-Asp-Npg-B5-Asn-Thr-Aib-Ala-Phe-Asn-PyrS2-3Thi-BztA-Lys-NH2], the negative-log IC50 (pIC50) is less than 4.70 in experiment [1] and 6.78 in experiment [2].

As for `CC(=O)N1CCC[C@]12CC=CCCCC1(CCCC=CCCCOC(=O)N3CC[C@@](C(=O)N[C@@H](Cc4ccsc4)C(=O)N[C@@H](Cc4csc5ccccc45)C(=O)N[C@@H](Cc4ccc(O)cc4)C(N)=O)(C3)NC(=O)[C@H](CC(N)=O)NC(=O)[C@H](Cc3ccccc3)NC(=O)[C@H](C)NC(=O)C(C)(C)NC(=O)[C@H]([C@@H](C)O)NC(=O)[C@H](CC(N)=O)NC1=O)NC(=O)[C@H](CC(C)(C)C)NC(=O)[C@H](CC(=O)O)NC2=O` (stereo partly drawn) [I-2478, Ac-PL3-Asp-Npg-B5-Asn-Thr-Aib-Ala-Phe-Asn-PyrS2-3Thi-BztA-Tyr-NH2], the pIC50 is less than 4.70 in experiment [1] and 6.51 in experiment [2].

For `CC(=O)N1CCC[C@]12CC=CCCCC1(CCCC=CCCCOC(=O)N3CC[C@@](C(=O)N[C@@H](Cc4ccccc4C(F)(F)F)C(=O)N[C@@H](Cc4c(C(F)(F)F)[nH]c5ccccc45)C(=O)N[C@@H](CCC(N)=O)C(N)=O)(C3)NC(=O)[C@H](CC(C)C)NC(=O)[C@H](Cc3ccccc3)NC(=O)[C@H](C)NC(=O)[C@H](C)NC(=O)[C@H](Cc3cccc(C(=O)O)c3)NC(=O)[C@H](CC(=O)O)NC1=O)NC(=O)[C@H](CC(C)(C)C)NC(=O)[C@H](CC(=O)O)NC2=O` (stereo partly drawn) [I-2484, Ac-PL3-Asp-Npg-B5-Asp-3COOHF-Ala-Ala-Phe-Leu-PyrS2-2F3MeF-2F3MeW-Gln-NH2], the figures for the pIC50 in experiment [1] and in experiment [2] were less than 4.70 and 5.20, respectively.

Turning to `CC(=O)N1CCC[C@]12CC=CCCCC1(CCCC=CCCCOC(=O)N3CC[C@@](C(=O)N[C@@H](Cc4ccccc4C(F)(F)F)C(=O)N[C@@H](Cc4c(C(F)(F)F)[nH]c5ccccc45)C(=O)N[C@@H](C)C(N)=O)(C3)NC(=O)[C@H](CC(C)C)NC(=O)[C@H](Cc3ccccc3)NC(=O)[C@H](C)NC(=O)[C@H](CCC(N)=O)NC(=O)[C@H](Cc3cccc(C(=O)O)c3)NC(=O)[C@H](CC(=O)O)NC1=O)NC(=O)[C@H](CC(C)(C)C)NC(=O)[C@H](CC(=O)O)NC2=O` (stereo partly drawn) [I-2485, Ac-PL3-Asp-Npg-B5-Asp-3COOHF-Gln-Ala-Phe-Leu-PyrS2-2F3MeF-2F3MeW-Ala-NH2], the negative logarithm of the IC50 (pIC50) in experiment [1] was less than 4.70; in experiment [2] it was 5.32.

For `CC(=O)N1CCC[C@]12CC=CCCCC1(CCCC=CCCCOC(=O)N3CC[C@@](C(=O)N[C@@H](Cc4ccccc4C(F)(F)F)C(=O)N[C@@H](Cc4csc5c(Cl)cccc45)C(=O)N[C@@H](CCC(N)=O)C(N)=O)(C3)NC(=O)[C@H](CC(C)C)NC(=O)[C@H](Cc3ccccc3)NC(=O)[C@H](C)NC(=O)[C@H](C)NC(=O)[C@H](Cc3cccc(C(=O)O)c3)NC(=O)[C@H](CC(=O)O)NC1=O)NC(=O)[C@H](CC(C)(C)C)NC(=O)[C@H](CC(=O)O)NC2=O` (stereo partly drawn) [I-2486, Ac-PL3-Asp-Npg-B5-Asp-3COOHF-Ala-Ala-Phe-Leu-PyrS2-2F3MeF-7C1BztA-Gln-NH2], the pIC50 was 5.43 in experiment [1] and 7.47 in experiment [2].

With `CC(=O)N1CCC[C@]12CC=CCCCC1(CCCC=CCCCOC(=O)N3CC[C@@](C(=O)N[C@@H](Cc4ccccc4C(F)(F)F)C(=O)N[C@@H](Cc4csc5c(Cl)cccc45)C(=O)N[C@@H](C)C(N)=O)(C3)NC(=O)[C@H](CC(C)C)NC(=O)[C@H](Cc3ccccc3)NC(=O)[C@H](C)NC(=O)[C@H](CCC(N)=O)NC(=O)[C@H](Cc3cccc(C(=O)O)c3)NC(=O)[C@H](CC(=O)O)NC1=O)NC(=O)[C@H](CC(C)(C)C)NC(=O)[C@H](CC(=O)O)NC2=O` (stereo partly drawn) [I-2487, Ac-PL3-Asp-Npg-B5-Asp-3COOHF-Gln-Ala-Phe-Leu-PyrS2-2F3MeF-7C1BztA-Ala-NH2], the pIC50 in experiment [1] is 5.38; in experiment [2] it was 7.44.

As for `CC(=O)N1CCC[C@]12CC=CCCCC1(CCCC=CCCCOC(=O)N3CC[C@@](C(=O)N[C@@H](Cc4ccccc4C(F)(F)F)C(=O)N[C@@H](Cc4csc5c(F)cccc45)C(=O)N[C@@H](CCC(N)=O)C(N)=O)(C3)NC(=O)[C@H](CC(C)C)NC(=O)[C@H](Cc3ccccc3)NC(=O)[C@H](C)NC(=O)[C@H](C)NC(=O)[C@H](Cc3cccc(C(=O)O)c3)NC(=O)[C@H](CC(=O)O)NC1=O)NC(=O)[C@H](CC(C)(C)C)NC(=O)[C@H](CC(=O)O)NC2=O` (stereo partly drawn) [I-2488, Ac-PL3-Asp-Npg-B5-Asp-3COOHF-Ala-Ala-Phe-Leu-PyrS2-2F3MeF-7FBztA-Gln-NH2], the figures for the pIC50 in experiment [1] and in experiment [2] were 5.44 and 7.59, respectively.

As to `CC(=O)N1CCC[C@]12CC=CCCCC1(CCCC=CCCCOC(=O)N3CC[C@@](C(=O)N[C@@H](Cc4ccccc4C(F)(F)F)C(=O)N[C@@H](Cc4csc5c(F)cccc45)C(=O)N[C@@H](C)C(N)=O)(C3)NC(=O)[C@H](CC(C)C)NC(=O)[C@H](Cc3ccccc3)NC(=O)[C@H](C)NC(=O)[C@H](CCC(N)=O)NC(=O)[C@H](Cc3cccc(C(=O)O)c3)NC(=O)[C@H](CC(=O)O)NC1=O)NC(=O)[C@H](CC(C)(C)C)NC(=O)[C@H](CC(=O)O)NC2=O` (stereo partly drawn) [I-2489, Ac-PL3-Asp-Npg-B5-Asp-3COOHF-Gln-Ala-Phe-Leu-PyrS2-2F3MeF-7FBztA-Ala-NH2], the pIC50 in experiment [1] was 5.13; in experiment [2] it was 7.54.

For `CC(=O)N1CCC[C@]12CC=CCCCC1(CCCC=CCCCOC(=O)N3CC[C@@](C(=O)N[C@@H](Cc4ccccc4C(F)(F)F)C(=O)N[C@@H](Cc4csc5cccc(Cl)c45)C(=O)N[C@@H](CCC(N)=O)C(N)=O)(C3)NC(=O)[C@H](CC(C)C)NC(=O)[C@H](Cc3ccccc3)NC(=O)[C@H](C)NC(=O)[C@H](C)NC(=O)[C@H](Cc3cccc(C(=O)O)c3)NC(=O)[C@H](CC(=O)O)NC1=O)NC(=O)[C@H](CC(C)(C)C)NC(=O)[C@H](CC(=O)O)NC2=O` (stereo partly drawn) [I-2490, Ac-PL3-Asp-Npg-B5-Asp-3COOHF-Ala-Ala-Phe-Leu-PyrS2-2F3MeF-4C1BztA-Gln-NH2], the pIC50 was 5.19 in experiment [1] and 7.41 in experiment [2].

On to `CC(=O)N1CCC[C@]12CC=CCCCC1(CCCC=CCCCOC(=O)N3CC[C@@](C(=O)N[C@@H](Cc4ccccc4C(F)(F)F)C(=O)N[C@@H](Cc4csc5cccc(Cl)c45)C(=O)N[C@@H](C)C(N)=O)(C3)NC(=O)[C@H](CC(C)C)NC(=O)[C@H](Cc3ccccc3)NC(=O)[C@H](C)NC(=O)[C@H](CCC(N)=O)NC(=O)[C@H](Cc3cccc(C(=O)O)c3)NC(=O)[C@H](CC(=O)O)NC1=O)NC(=O)[C@H](CC(C)(C)C)NC(=O)[C@H](CC(=O)O)NC2=O` (stereo partly drawn) [I-2491, Ac-PL3-Asp-Npg-B5-Asp-3COOHF-Gln-Ala-Phe-Leu-PyrS2-2F3MeF-4C1BztA-Ala-NH2], for which the pIC50 in experiment [1] was 5.21; in experiment [2], 7.31.

For `CC(=O)N1CCC[C@]12CC=CCCCC1(CCCC=CCCCOC(=O)N3CC[C@@](C(=O)N[C@@H](Cc4ccsc4)C(=O)N[C@@H](Cc4csc5ccccc45)C(=O)N[C@@H](CCC(N)=O)C(N)=O)(C3)NC(=O)[C@H](CC(N)=O)NC(=O)[C@H](Cc3ccccc3)NC(=O)[C@H](C)NC(=O)C3(CCCC3)NC(=O)[C@H]([C@@H](C)O)NC(=O)[C@H](CC(N)=O)NC1=O)NC(=O)[C@H](CC(C)(C)C)NC(=O)[C@H](CC(=O)O)NC2=O` (stereo partly drawn) [I-2493, Ac-PL3-Asp-Npg-B5-Asn-Thr-CyLeu-Ala-Phe-Asn-PyrS2-3Thi-BztA-Gln-NH2], the pIC50 was less than 4.70 in experiment [1] and 6.57 in experiment [2].

For the origin of these results see patent US20240116985A1, “STAPLED PEPTIDES AND METHODS THEREOF” (priority 2020, published 2024).
